In US20040242700A1 (priority 2001, published 2004):
Where two headings read alike, the source gives them in different places.

Assays:
[1] = test system: IFN-γ; type: in vivo, mice
[2] = test system: mucosal immunoglobulin IgA; type: in vivo, mice
[3] = test system: SP-A; type: in vivo, mice; conditions: administration of ambroxol
[4] = test system: TNF-α; type: in vivo, mice; conditions: 3rd to 5th day of treatment, not always observed
[5] = test system: mucosal immunoglobulin IgA; type: in vivo, mice; remark: listed apart in the source
[6] = test system: MPI; type: in vivo, mice
[7] = test system: MPI; type: in vivo, mice; conditions: administration of ambroxol
[8] = test system: inflammatory cytokines such as TNF-α, IL-2, IL-1, IL-4, IL-13 and IFN-γ; conditions: literature reports; cited from earlier work
[9] = test system: IL-12; type: in vivo, mice
[10] = test system: trypsin-type protease; design: species or system mice; conditions: mouse, in vivo, ip
[11] = test system: trypsin-type protease; type: in vivo, mice; conditions: 4th day
[12] = test system: IL-6; type: in vivo, mice
[13] = test system: mucosal immunoglobulin IgG; type: in vivo, mice
[14] = test system: mucosal immunoglobulin IgG; type: in vivo, mice; remark: listed apart in the source
[15] = test system: SP-A; design: species or system mice; conditions: mouse, in vivo, ip

Nc1c(Br)cc(Br)cc1CN[C@H]1CC[C@H](O)CC1 [ambroxol, 2-amino-3,5-dibromo-N-[trans-4-hydroxycyclohexyl] benzyl amine]
INF-γ ([1]; 10 mg/kg/day i.p., day 1): 9.4 ± 2.4 pg/mL
INF-γ ([1]; 10 mg/kg/day i.p., day 2): 9.5 ± 1.8 pg/mL
INF-γ ([1]; 10 mg/kg/day i.p., day 3): 2.8 ± 0.9 pg/mL
IFN-γ ([1]; 10 mg/kg/day i.p., day 4): 5.3 ± 2.8 pg/mL
IFN-γ ([1]; 10 mg/kg/day i.p., day 5): 14.7 ± 5.3 pg/mL
IFN-γ ([1]; 10 mg/kg/day i.p., day 6): 39.4 ± 18.6 pg/mL
IFN-γ ([1]; 10 mg/kg/day i.p., day 7): 4.0 ± 1.6 pg/mL
INF-γ ([1]; 30 mg/kg/day i.p., day 1): 10.4 ± 2.7 pg/mL
INF-γ ([1]; 30 mg/kg/day i.p., day 2): 9.8 ± 2.4 pg/mL
INF-γ ([1]; 30 mg/kg/day i.p., day 3): 4.0 ± 1.1 pg/mL
IFN-γ ([1]; 30 mg/kg/day i.p., day 4): 10.2 ± 5.5 pg/mL
IFN-γ ([1]; 30 mg/kg/day i.p., day 5): 32.8 ± 11.1 pg/mL
IFN-γ ([1]; 30 mg/kg/day i.p., day 6): 61.8 ± 21.7 pg/mL
IFN-γ ([1]; 30 mg/kg/day i.p., day 7): 5.1 ± 1.8 pg/mL
effect on INF-γ secretion in BALF ([1]; 1st day of treatment, not always observed): secretion-inhibitory effects
IgA concentration relative to the group free of treatment ([2]; 10 mg/kg/day, 7th day): about 10 times
IgA concentration relative to the group free of treatment ([2]; 30 mg/kg/day, 5th day): about 10 times
IgA concentration relative to the basic concentration ([2]; dose not stated): about 10 times
secretion of SP-A [3]: lightly promoted
effect on TNF-α secretion in BALF [4]: secretion-inhibitory effects
IgA level relative to the basic concentration of IgA ([5]; 10 mg/kg/day, 7th day): about 600 times
IgA level relative to the basic concentration of IgA ([5]; 30 mg/kg/day, 5th day): ~700 times
IgA concentration relative to the maximum concentration induced through the viral infection ([5]; treatment with ambroxol): 1.5-1.8 times
MPI concentration relative to that induced by the viral infection ([6]; […], treatment with ambroxol): 1.9 times
peak MPI concentration relative to un-infected animals ([6]; mouse, in vivo): 8.4 times
day on which the MPI level reached the peak value ([6]; mouse, in vivo, ip, 10 mg/kg/day): 5 days
day on which the MPI level reached the maximum value ([6]; mouse, in vivo, ip, 30 mg/kg/day): 4 days
secretion of MPI [7]: lightly promoted
in vitro release of inflammatory cytokines such as TNF-α, IL-2, IL-1, IL-4, IL-13 and IFN-γ [8]: inhibits
IL-12 ([9]; 10 mg/kg/day i.p., day 1): 27.3 ± 7.1 pg/mL
IL-12 ([9]; 10 mg/kg/day i.p., day 2): 68.5 ± 12.9 pg/mL
IL-12 ([9]; 10 mg/kg/day i.p., day 3): 133.3 ± 17.2 pg/mL
IL-12 ([9]; 10 mg/kg/day i.p., day 4): 119.5 ± 15.8 pg/mL
IL-12 ([9]; 10 mg/kg/day i.p., day 5): 57.4 ± 16.0 pg/mL
IL-12 ([9]; 10 mg/kg/day i.p., day 6): 29.4 ± 6.2 pg/mL
IL-12 ([9]; 10 mg/kg/day i.p., day 7): 62.5 ± 27.7 pg/mL
IL-12 ([9]; 30 mg/kg/day i.p., day 1): 22.4 ± 4.1 pg/mL
IL-12 ([9]; 30 mg/kg/day i.p., day 2): 108.2 ± 33.3 pg/mL
IL-12 ([9]; 30 mg/kg/day i.p., day 3): 141.5 ± 15.1 pg/mL
IL-12 ([9]; 30 mg/kg/day i.p., day 4): 118.6 ± 11.4 pg/mL
IL-12 ([9]; 30 mg/kg/day i.p., day 5): 62.4 ± 13.6 pg/mL
IL-12 ([9]; 30 mg/kg/day i.p., day 6): 44.3 ± 29.1 pg/mL
IL-12 ([9]; 30 mg/kg/day i.p., day 7): 95.8 ± 52.2 pg/mL
day on which the trypsin-type protease level reached the peak value ([10]; 10 mg/kg/day): 5 days
day on which the trypsin-type protease level reached the peak level ([10]; 30 mg/kg/day): 4 days
peak trypsin-type protease level relative to un-infected animals ([11]; 10 mg/kg/day i.p.): up to 2.2 times
peak trypsin-type protease level relative to un-infected animals ([11]; 30 mg/kg/day i.p.): ≤ 2.4 times
IL-6 ([12]; 10 mg/kg/day i.p., day 1): 174.8 ± 35.0 pg/mL
IL-6 ([12]; 10 mg/kg/day i.p., day 2): 191.8 ± 51.9 pg/mL
IL-6 ([12]; 10 mg/kg/day i.p., day 3): 280.2 ± 54.2 pg/mL
IL-6 ([12]; 10 mg/kg/day i.p., day 4): 339.2 ± 57.1 pg/mL
IL-6 ([12]; 10 mg/kg/day i.p., day 5): 540.9 ± 84.2 pg/mL
IL-6 ([12]; 10 mg/kg/day i.p., day 6): 503.23 ± 61.4 pg/mL
IL-6 ([12]; 10 mg/kg/day i.p., day 7): 73.7 ± 14.7 pg/mL
IL-6 ([12]; 30 mg/kg/day i.p., day 1): 170.8 ± 28.9 pg/mL
IL-6 ([12]; 30 mg/kg/day i.p., day 2): 186.7 ± 19.6 pg/mL
IL-6 ([12]; 30 mg/kg/day i.p., day 3): 326.2 ± 44.9 pg/mL
IL-6 ([12]; 30 mg/kg/day i.p., day 4): 433.5 ± 101.9 pg/mL
IL-6 ([12]; 30 mg/kg/day i.p., day 5): 478.2 ± 86.4 pg/mL
IL-6 ([12]; 30 mg/kg/day i.p., day 6): 817.0 ± 168.0 pg/mL
IL-6 ([12]; 30 mg/kg/day i.p., day 7): 80.0 ± 17.5 pg/mL
effect on the level of IL-6 in BALF ([12]; 4th and 6th days of treatment): increased
IgG concentration relative to the basic concentration of IgG ([13]; 10 mg/kg/day, 6th day): about 16 times
IgG concentration relative to the basic concentration of IgG ([13]; 30 mg/kg/day, 5th day): ~15 times
IgG concentration relative to the maximum concentration induced through the viral infection ([13]; treatment with ambroxol): ~1.45 times
IgG concentration relative to the group free of treatment ([14]; 10 mg/kg/day, 7th day): about 1.2 time
IgG concentration relative to the group free of treatment ([14]; 30 mg/kg/day, 6th day): about 1.2 time
IgG concentration relative to the basic concentration ([14]; dose not stated): 1.2 times
day on which the SP-A level reached the peak value ([15]; 10 mg/kg/day): 5 days
day on which the SP-A level reached the maximum value ([15]; 30 mg/kg/day): 4 days
